Measured values: patent US9492508B2, “Parathyroid hormone analogs and uses thereof” (The General Hospital Corporation, priority 2010, dated 2016)
Ends that are not written are not given here.

Columns and labels:
[1] = Repetitive daily dosing in TPTX rats (10 days); type: in vivo, rat
Procedure: FIGS. 20A-20D are graphs showing effects of once-daily SP-PTH on serum and urine Ca in TPTX rats. TPTX and sham-control rats were treated once daily, for 10 days, via sc. injection with either vehicle (Sham and TPTX) or SP-PTH (SEQ ID NO:11) (1, 2. 4, or 8 nmol/kg), or with 1,25(OH)2D (0.075 or 0.2 μg/kg. orn). After the last injection on day 10, the rats were placed in metabolic cages, and jugular vein blood was obtained at 8 (FIG. 20A) and 24 hrs (FIG. 20B); urine was collected for the intervals 0-8 (FIG. 20C) and 8-24 hrs (FIG. 20D); means±s.e.m: n=5; ′˜, P vs vehicle <005.
In therapeutic use in humans, one would administer doses sufficient to only normalize blood Ca. A key experiment is to determine if it is indeed feasible to normalize sCa following a repetitive dosing regimen. We thus performed the experiment of FIGS. 20A-2D, in which TPTX rats were treated daily for 10 days with SP-PTH at doses of 1, 2, 4 and 8 nmol/kg (s.c). For comparison, 1,25(OH)2-vitamin-D (calcitriol) at doses of 0.075 and 0.2 mcg/kg (oral) were used for the same time periods.

[2] = rat, in vivo, iv, 24.3 nmol/kg
[3] = biological target: T1, human PTHR1 (RG) (Homo sapiens, UniProt Q03431); assay: Competition binding, RG conformation of human PTHR1 (COS-7 membranes); settings: mean of 3 experiments, read-out: Binding human PTHR1 IC50 (Log M) RG (converted)
T1 construct: expressed in transfected cells; host or cells: COS-7 cells (membranes)
T1 sequence (Q03431 27-593): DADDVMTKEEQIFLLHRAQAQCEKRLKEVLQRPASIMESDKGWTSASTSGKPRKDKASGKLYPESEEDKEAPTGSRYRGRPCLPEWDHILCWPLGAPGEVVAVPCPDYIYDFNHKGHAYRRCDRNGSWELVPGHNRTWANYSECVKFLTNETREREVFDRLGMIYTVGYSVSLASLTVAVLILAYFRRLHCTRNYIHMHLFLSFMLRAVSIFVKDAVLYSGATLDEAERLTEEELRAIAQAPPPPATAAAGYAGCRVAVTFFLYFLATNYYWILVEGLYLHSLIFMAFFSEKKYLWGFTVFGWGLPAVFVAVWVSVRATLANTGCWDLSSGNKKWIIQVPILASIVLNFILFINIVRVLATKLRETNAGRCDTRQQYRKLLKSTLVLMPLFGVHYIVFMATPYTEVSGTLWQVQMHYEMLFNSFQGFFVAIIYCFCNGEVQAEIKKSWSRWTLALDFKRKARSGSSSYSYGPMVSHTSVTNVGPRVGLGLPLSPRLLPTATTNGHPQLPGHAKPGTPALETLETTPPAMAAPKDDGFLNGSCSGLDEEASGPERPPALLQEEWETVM
Procedure: Briefly, the R^0 form of the receptor can be favored by addition of the non-hydrolyzable nucleotide analog GTPγS. The RG form can be favored, for example, by co-transfection of cells with a negative dominant Gαs subunit. […] Data are means of four experiments, each performed in duplicate. Curves were fit to the data using Graph-Pad Prism 4.0.
Here, competition binding assays for the R^0 and RG PTHR1 conformation were performed in membranes prepared from transfected COS-7 cells, as described by Dean et al., Mol Endocrinol 22:156-66, 2008. Data are means of three experiments, each performed in duplicate. Curves were fit to the data using Graph-Pad Prism 4.0.

[4] = in vivo; settings: rat, iv, 24.3 nmol/kg
[5] = 4 nmol/kg s.c. once daily 10 days

AUCinf [2] [pmol·min/mL] | IC50 [3] [nM] | MRT ([4]; Crl:CD(SD)) [min] | Vd ([4]; Crl:CD(SD)) [L/kg] | clearance ([4]; Crl:CD(SD)) [mL/min/kg] | half-life ([4]; Crl:CD(SD)) [min] | AUC(0-t) [4] [µM·h] | Substance | sCa at 8 hours after the last injection [1, 5] | sCa at 24 hours after the last injection [1, 5] | urine calcium excretion ([1]; SP-PTH 4 nmol/kg s.c. once daily 10 days)
 |  |  |  |  |  |  | AVAEIQLMHQRAKWIQDLRRRFFLHHLIAEIHTAEI-OH [SP-PTH, [Ala^1,3,12,Gln^10,Arg^11,Trp^14]PTH(1-14)/PTHrP(15-36)] | avoided hypercalcemia | maintained near-normal sCa | low at all time points
1131 | 0.224 | 5.83 | 0.126 | 21.6 | 7.27 | 0.0187 | AVAEIQLMHQRAKWIQDARRRAFLHKLIAEIHTAEI-OH [SP-PTH-AAK, [Ala^1,3,12,18,22,Gln^10,Arg^11,Trp^14,Lys^26]PTH(1-14)/PTHrP(15-36)] |  |  | 
